The values that follow come from US9911927B2, “Compounds having semiconducting properties and related compositions and devices” (Flexterra, Inc., priority 2011, dated 2018).

Data set [1] is described as follows: Solubility in toluene at 60° C. The format is physicochemical. The protocol:
The solubility of Cn-DNTTs (Cn=a linear alkyl chain) are very low in organic solvents (up to ˜80 mg/L in toluene at 60° C.) (see: Adv. Mater. 2011, 23, 1222-1225).

Bounds are passed on as bounds.

For the compound `CCCC(C)c1ccc2cc3c(cc2c1)sc1c2cc4ccc(C(C)CCC)cc4cc2sc31` (stereo not shown) [2,9-1MB-DNTT, 2,9-Bis(1-methylbutyl)dinaphtho [2,3-b:2′,3′-f]thieno[3,2-b]thiophene], the melting point is 280 to 281 °C.
As for `CCCCC(C)c1ccc2cc3c(cc2c1)sc1c2cc4ccc(C(C)CCCC)cc4cc2sc31` (stereo not shown) [2,9-1MP-DNTT, 2,9-Bis(1-methylpentyl)dinaphtho[2,3-b:2′,3′-f]thieno[3,2-b]thiophene], the melting point lay within 262 to 263 °C. Besides, the solubility entry in data set [1] (in toluene at 60° C.) was “about 50 g/L”. Further, the “solubility relative to corresponding linear alkyl chain DNTT compounds” value in data set [1] (toluene at 60° C., times higher) is given as more than 500 times.
